Article PMC5154250 (Biochemistry, 2016)

Legend:
[1] = biological target: T1, PDH (photoreceptor retinol dehydrogenase, isoform C; PDHc) (Drosophila melanogaster, UniProt B7Z062); test: differential scanning fluorimetry; assay type: binding
T1 sequence (B7Z062 2-261): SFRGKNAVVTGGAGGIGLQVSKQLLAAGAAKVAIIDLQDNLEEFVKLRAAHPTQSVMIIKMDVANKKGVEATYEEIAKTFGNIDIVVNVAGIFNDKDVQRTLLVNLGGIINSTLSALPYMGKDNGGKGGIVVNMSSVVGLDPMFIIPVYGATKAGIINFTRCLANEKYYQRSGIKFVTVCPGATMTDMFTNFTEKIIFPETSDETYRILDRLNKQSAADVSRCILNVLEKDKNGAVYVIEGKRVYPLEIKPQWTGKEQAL

[2] = biological target: Drosophila melanogaster photoreceptor retinol dehydrogenase (PDH) isoform C (Drosophila melanogaster); test: crystal structure

Kd [1] | stoichiometry N [2] | Molecule
170 ± 30 µM | – | NC(=O)c1ccc[n+]([C@@H]2O[C@H](COP(=O)([O-])OP(=O)(O)OC[C@H]3O[C@@H](n4cnc5c(N)ncnc54)[C@H](O)[C@@H]3O)[C@@H](O)[C@H]2O)c1 [NAD^+]
– | 2 | Drosophila melanogaster photoreceptor retinol dehydrogenase (PDH) isoform C (enzyme)
